In the Kinase Knowledgebase extract (Sharma et al. 2016):

Each molecule was assayed against MAPK14;MAPK11;MAPK12 (human) (UniProt Q16539) (assay: Inhibition of p38 Kinase Activity).

| SMILES | IC50 [µM] |
| --- | --- |
| CNC(=O)c1ccc(C)c(Nc2nc(N[C@H]3CCNC3)nc(N(C)CC3CCCC3)n2)c1 | < 1 |
| Cc1ccc(C(N)=O)cc1Nc1nc(N[C@H]2CCNC2)nc(N(C)C[C@H](C)c2ccccc2)n1 | < 1 |
| Cc1cc(Cl)c(C(N)=O)cc1Nc1nc(N[C@H]2CCNC2)nc(N(C)CC(C)(C)C)n1 | < 1 |
| CC(C)NC(=O)N1CCN(c2nc(NCC(C)c3ccccc3)nc(Nc3ccc4ncsc4c3)n2)CC1 (stereo unspecified) | < 10 |
| Clc1nc(Nc2ccc3ncsc3c2)nc(N2CCC3CCCCC3C2)n1 (stereo unspecified) | < 10 |
| COc1nc(NCC(C)c2ccccc2)nc(Nc2ccc3ncsc3c2)n1 (stereo unspecified) | < 10 |
| CCC(C)(C)c1nc(Nc2cc(C(N)=O)ccc2C)nc(N[C@H]2CCNC2)n1 | < 1 |
| CC(C)c1nc(Nc2ccc3ncsc3c2)nc(N2CCNCC2)n1 | < 10 |
| CC(C)C(=O)N1CCN(c2nc(NCC(C)c3ccccc3)nc(Nc3ccc4ncsc4c3)n2)CC1 (stereo unspecified) | < 10 |
| Cc1ccc(C(N)=O)cc1Nc1nc(N[C@H]2CCN(Cc3ccc(O)cc3)C2)nc(N(C)CC(C)C)n1 | < 1 |
| Cc1ccc(C(N)=O)cc1Nc1nc(N[C@H]2CCN(CC(C)(C)C)C2)nc(N(C)CC(C)(C)C)n1 | < 1 |
| CCCc1ccc(C(N)=O)cc1Nc1nc(N[C@H]2CCNC2)nc(N(C)CC(C)(C)C)n1 | < 1 |
| CC1(C)C2CCC(CNc3nc(Nc4ccc5ncoc5c4)nc(N4CCNCC4)n3)C1C2 (stereo unspecified) | < 10 |
| CNc1nc(NCc2ccccc2OC)nc(Nc2ccc3ncsc3c2)n1 | < 10 |
| Cc1ccc(C(N)=O)cc1Nc1nc(N[C@H]2CCN(Cc3cccnc3)C2)nc(N(C)CC(C)C)n1 | < 1 |
| CC(CNc1nc(Nc2ccc3ncsc3c2)nc(N2CCN(C(=O)c3ccc(-c4ccccc4)cc3)CC2)n1)c1ccccc1 (stereo unspecified) | < 10 |
| Cc1ccc(C(=O)Nc2ccccc2)cc1Nc1nc(N[C@H]2CCNC2)nc(N(C)CC(C)(C)C)n1 | < 1 |
| Cc1ccc(C(N)=O)cc1Nc1nc(NC2CCCCNC2)nc(N(C)CC(C)(C)C)n1 (stereo unspecified) | < 1 |
| CC(C)C(=O)N1CC2CC1CN2c1nc(NCC(C)c2ccccc2)nc(Nc2ccc3ncsc3c2)n1 (stereo unspecified) | < 10 |
| CNC(=O)CCC(=O)N1CCN(c2nc(NCC3CC[C@H]4C[C@@H]3C4(C)C)nc(Nc3ccc4ncsc4c3)n2)CC1 (stereo partly specified) | < 10 |
| CONC(=O)c1ccc(F)c(Sc2nc(N[C@@H]3CCNC3)nc(N(C)CC(C)(C)C)n2)c1 | < 30 |
| Cc1ccc(C(N)=O)cc1Nc1nc(N[C@H]2CCN(C(C)c3ccccc3)C2)nc(N(C)CC(C)C)n1 (stereo partly specified) | < 1 |

| SMILES | IC50 [µM] |
| --- | --- |
| Cc1ccc(C(N)=O)cc1Nc1nc(N[C@H]2CN[C@@H](C)C2)nc(N(C)CC(C)(C)C)n1 | < 1 |
| Cc1cccc(CN2CC[C@H](Nc3nc(Nc4cc(C(N)=O)ccc4C)nc(N(C)CC(C)C)n3)C2)c1 | < 1 |
| CC(CNc1nc(Nc2ccc3ncsc3c2)nc(N2CCN(S(=O)(=O)N(C)C)CC2)n1)c1ccccc1 (stereo unspecified) | < 10 |
| CC(=O)N1CC2CC1CN2c1nc(NCC(C)c2ccccc2)nc(Nc2ccc3ncsc3c2)n1 (stereo unspecified) | < 10 |
| CCONC(=O)c1ccc(C)c(Nc2nc(N[C@@H]3CCNC3)nc(N(C)CC(C)C(F)(F)F)n2)c1 (stereo partly specified) | < 1 |
| Cc1ccc(C(N)=O)cc1Nc1nc(N[C@H]2CCN(C(C#N)c3ccccc3)C2)nc(N(C)CC(C)(C)C)n1 (stereo partly specified) | < 1 |
| CCNC(=O)c1ccc(C)c(Nc2nc(N[C@H]3CCNC3)nc(N(C)CC3CCCC3)n2)c1 | < 1 |
| CNC(=O)c1ccc(C)c(Nc2nc(NC3CCN(Cc4ccccn4)C3)nc(N(C)CC(C)(C)C)n2)c1 (stereo unspecified) | < 1 |
| CONC(=O)c1ccc(C)c(Sc2nc(NCc3ccccn3)nc(N(C)CC(C)(C)C)n2)c1 | < 30 |
| CSc1nc2ccc(Nc3nc(NC[C@H](C)O)nc(N[C@@H](C)C4CCCCC4)n3)cc2s1 | < 10 |
| Clc1nc(Nc2ccc3ncsc3c2)nc(N2CCc3ccccc3C2)n1 | < 10 |
| Cc1ccc(C(N)=O)cc1Nc1nc(N[C@H]2CN[C@H](C)C2)nc(N(C)CC(C)(C)C)n1 | < 1 |
| CC(C)OCCNc1cc(N(C)C)nc(-n2cnc3ccccc32)n1 | < 10 |
| Nc1nc(NCCc2ccccc2)nc(Nc2ccc(S(=O)(=O)N(C=O)c3ncccn3)cc2)n1 | < 10 |
| Cc1ccc(C(N)=O)cc1Nc1nc(NCC23CC4CC(CC(C4)C2)C3)nc(N[C@H]2CCNC2)n1 | < 1 |
| CN(CC1CCC2CC1C2(C)C)c1nc(Nc2ccc3ncsc3c2)nc(N2CCNCC2)n1 (stereo unspecified) | < 10 |
| C=CCN1CC[C@H](Nc2nc(Nc3cc(C(=O)NC(C)C)ccc3C)nc(N(C)CC3CCCC3)n2)C1 | < 1 |
| C[C@H](CNc1nc(Cl)nc(Nc2ccc3ncsc3c2)n1)c1ccccc1 | < 10 |
| CC(C)c1nc(NC[C@@H]2CC[C@@H]3C[C@H]2C3(C)C)nc(Nc2ccc3ncsc3c2)n1 | < 10 |
| Cc1ccc(C(N)=O)cc1Nc1cc(NC(C)c2ccccc2)nc(NCC(N)=O)n1 (stereo unspecified) | < 1 |
| Cc1ccc(C(N)=O)cc1Nc1nc(NCC2(c3ccc(Cl)cc3)CC2)nc(N[C@H]2CCNC2)n1 | < 1 |
| CC(C)Oc1nc(NCC(C)c2ccccc2)nc(Nc2ccc3ncsc3c2)n1 (stereo unspecified) | < 10 |

| SMILES | IC50 [µM] |
| --- | --- |
| CCONC(=O)c1ccc(C)c(Nc2cc(N(C)CC(C)(C)C)nc(N3CCCN(C)CC3)n2)c1 | < 1 |
| CN(CCN(C)c1nc(NCC2CCC3CC2C3(C)C)nc(Nc2ccc3ncsc3c2)n1)C(=O)CCC(=O)O (stereo unspecified) | < 10 |
| Cc1ccc(C(N)=O)cc1Nc1nc(NC[C@H]2CCCN2)nc(N(C)CC(C)(C)C)n1 | < 1 |
| CONC(=O)c1ccc(C)c(Nc2nc(N[C@H]3CCNC3)cc(N(C)CC(C)(C)C)n2)c1 | < 1 |
| Cc1ccc(C(=O)NCCC(C)C)cc1Nc1nc(N[C@H]2CCNC2)nc(N(C)CC(C)(C)C)n1 | < 1 |
| CNC(=O)c1ccc(C)c(Nc2nc(N[C@H]3CCNC3)nc(N(C)CC(C)C)n2)c1 | < 1 |
| Cc1ccc(C(N)=O)cc1Nc1nc(N[C@H]2CCN(Cc3ccccc3F)C2)nc(N(C)CC(C)C)n1 | < 1 |
| Cc1ccc(C(N)=O)cc1Nc1nc(N[C@@H]2CCN(C(C)CO)C2)nc(N(C)CC(C)(C)C)n1 (stereo partly specified) | < 1 |
| COCCNC(=O)c1ccc(C)c(Nc2nc(N[C@H]3CCNC3)nc(N(C)CC(C)C)n2)c1 | < 1 |
| Cc1ccc(C(=O)NCC(F)(F)F)cc1Nc1nc(N[C@H]2CCNC2)nc(N(C)CC(C)(C)C)n1 | < 1 |
| Cc1ccc2c(c1)ncn2-c1nc(F)cc(NCCOC(C)C)n1 | < 10 |
| Cc1ccc(C(N)=O)cc1Nc1nc(NC[C@H]2CCCN2)nc(N(C)CC2CCCC2)n1 | < 1 |
| CC(CCCCCCNc1nc(NCC(C)c2ccccc2)nc(Nc2ccc3ncoc3c2)n1)C(N)=O (stereo unspecified) | < 10 |
| Cc1ccc(C(N)=O)cc1Nc1nc(NC2CCNC2)nc(N(C)CC(C)(C)C)n1 (stereo unspecified) | < 1 |
| COc1ccc(C(=O)N(C)CCCN(C)c2nc(NCC(C)c3ccccc3)nc(Nc3ccc4ncsc4c3)n2)cc1 (stereo unspecified) | < 10 |
| Cc1ccc(CN2CC[C@H](Nc3nc(Nc4cc(C(N)=O)ccc4C)nc(N(C)CC(C)C)n3)C2)cc1 | < 1 |
| CNCCN(C)c1nc(NCC2CCC3CC2C3(C)C)nc(Nc2ccc3ncsc3c2)n1 (stereo unspecified) | < 10 |
| CNC(=O)c1ccc(C)c(Nc2nc(O[C@H]3CCNC3)nc(N(C)CC(C)(C)C)n2)c1 | < 1 |
| Cc1ccc(-c2n[nH]c(=O)[nH]2)cc1Nc1nc(N[C@@H]2CCNC2)nc(N(C)CC(C)(C)C)n1 | < 1 |
| Cc1c(Cl)cc(C(N)=O)cc1Nc1nc(N[C@H]2CCNC2)nc(N(C)CC(C)C)n1 | < 1 |
| CONC(=O)c1ccc(C)c(Oc2nc(N[C@@H]3CCNC3)nc(N(C)CC(C)(C)C)n2)c1 | < 30 |
| CCN1CC[C@@H](Nc2nc(Nc3cc(C(N)=O)ccc3C)nc(N(C)CC(C)(C)C)n2)C1 | < 1 |
